Source: patent US20230233569A1 (Revolution Medicines, Inc., priority 2020, published 2023)
pIC50: −log10 of the molar value. Read-outs that look alike come from different tables or passages of the source.

How the values were obtained:
Assay in all cases: Ras-Raf disruption / FRET / MOA assay (BRAF RBD)
Assay type in all cases: biochemical
KRAS G12C = KRAS G12C (Homo sapiens, UniProt P01116+P62937, G12C); settings: with Cyclophilin A
Procedure, shortened: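 His6-K-Ras G12C-GMPPNP (12.5 nM), GST-BRAF RBD (50 nM) and tagless Cyclophilin A (25 μM) incubated 3 h at 25 °C with compound (10-point 3-fold series from 30 μM), pH 7.3 HEPES buffer. Anti-His Eu/anti-GST APC added for 1.5 h; decreased TR-FRET ratio vs DMSO gives IC50.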

KRAS Q61H = KRAS Q61H (Homo sapiens, UniProt P01116+P62937, Q61H)
KRAS Q61H, sequence (P01116 1-169 isoform P01116-2 Q61H limits assumed): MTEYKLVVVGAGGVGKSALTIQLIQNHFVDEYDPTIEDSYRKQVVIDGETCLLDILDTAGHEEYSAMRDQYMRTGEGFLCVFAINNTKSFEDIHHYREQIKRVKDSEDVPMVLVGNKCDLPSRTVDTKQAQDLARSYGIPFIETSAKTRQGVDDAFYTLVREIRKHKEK
KRAS Q61H, sequence (P62937 whole entry): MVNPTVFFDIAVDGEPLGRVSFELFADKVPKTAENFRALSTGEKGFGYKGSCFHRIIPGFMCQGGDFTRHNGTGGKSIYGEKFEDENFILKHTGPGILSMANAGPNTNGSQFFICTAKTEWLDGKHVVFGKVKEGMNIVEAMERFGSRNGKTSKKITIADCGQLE
Procedure, shortened: (§1)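 TR-FRET in 25 mM HEPES pH 7.3, 100 mM NaCl, 5 mM MgCl2, 0.1% BSA, 0.002% Tween20 with 25 μM Cyclophilin A, 12.5 nM His6-Ras-GMPPNP, 50 nM GST-BRAF RBD; compound 10-point 3-fold series from 30 μM. After 3 h at 25 °C, Eu anti-His/APC anti-GST added for 1.5 h; IC50 from ratio decrease versus DMSO.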

NRAS Q61K = NRAS Q61K (Homo sapiens, UniProt P01111+P62937, Q61K)
NRAS Q61K, sequence (P01111 whole entry Q61K): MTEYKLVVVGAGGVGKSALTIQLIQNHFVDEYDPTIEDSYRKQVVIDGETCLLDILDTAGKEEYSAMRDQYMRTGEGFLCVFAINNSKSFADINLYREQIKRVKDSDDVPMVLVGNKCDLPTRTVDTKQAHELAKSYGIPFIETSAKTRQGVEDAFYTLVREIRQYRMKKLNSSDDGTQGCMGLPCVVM
NRAS Q61K, sequence (P62937 whole entry): as the sequence (P62937 whole entry) above
Procedure, shortened: as §1

KRAS WT = KRAS WT (Homo sapiens, UniProt P01116+P62937); settings: with Cyclophilin A
KRAS WT, sequence (P01116 1-169 isoform P01116-2 limits assumed): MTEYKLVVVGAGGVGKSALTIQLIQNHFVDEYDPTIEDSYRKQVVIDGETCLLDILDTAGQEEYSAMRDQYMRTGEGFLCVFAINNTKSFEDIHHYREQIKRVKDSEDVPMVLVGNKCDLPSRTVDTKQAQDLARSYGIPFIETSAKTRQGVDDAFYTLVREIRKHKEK
KRAS WT, sequence (P62937 whole entry): as the sequence (P62937 whole entry) above
Procedure, shortened: as §1

NRAS Q61R = NRAS Q61R (Homo sapiens, UniProt P01111+P62937, Q61R)
NRAS Q61R, sequence (P01111 whole entry Q61R): as the sequence (P01111 whole entry Q61K) above, with K61R counted along it
NRAS Q61R, sequence (P62937 whole entry): as the sequence (P62937 whole entry) above
Procedure, shortened: as §1

NRAS WT = NRAS WT (Homo sapiens, UniProt P01111+P62937)
NRAS WT, sequence (P01111 whole entry): as the sequence (P01111 whole entry Q61K) above, with K61Q counted along it
NRAS WT, sequence (P62937 whole entry): as the sequence (P62937 whole entry) above
Procedure, shortened: as §1

KRAS G12V = KRAS G12V (Homo sapiens, UniProt P01116+P62937, G12V); settings: with Cyclophilin A
KRAS G12V, sequence (P01116 1-169 isoform P01116-2 G12V limits assumed): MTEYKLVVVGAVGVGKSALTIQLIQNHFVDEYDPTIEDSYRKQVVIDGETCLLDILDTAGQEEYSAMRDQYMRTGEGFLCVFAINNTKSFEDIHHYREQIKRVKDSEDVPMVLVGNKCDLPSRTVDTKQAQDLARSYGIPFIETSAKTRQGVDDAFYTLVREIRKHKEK
KRAS G12V, sequence (P62937 whole entry): as the sequence (P62937 whole entry) above
Procedure, shortened: as §1

NRAS G12C = NRAS G12C (Homo sapiens, UniProt P01111+P62937, G12C)
NRAS G12C, sequence (P01111 whole entry G12C): as the sequence (P01111 whole entry Q61K) above, with G12C, K61Q counted along it
NRAS G12C, sequence (P62937 whole entry): as the sequence (P62937 whole entry) above
Procedure, shortened: as §1

KRAS G13D = KRAS G13D (Homo sapiens, UniProt P01116+P62937, G13D); settings: with Cyclophilin A
KRAS G13D, sequence (P01116 1-169 isoform P01116-2 G13D limits assumed): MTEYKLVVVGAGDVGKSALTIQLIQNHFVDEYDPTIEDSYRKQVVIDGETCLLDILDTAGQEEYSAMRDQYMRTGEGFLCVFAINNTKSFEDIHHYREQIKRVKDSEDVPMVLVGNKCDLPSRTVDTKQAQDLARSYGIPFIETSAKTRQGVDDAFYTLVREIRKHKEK
KRAS G13D, sequence (P62937 whole entry): as the sequence (P62937 whole entry) above
Procedure, shortened: as §1

KRAS G12S = KRAS G12S (Homo sapiens, UniProt P01116+P62937, G12S); settings: with Cyclophilin A
KRAS G12S, sequence (P01116 1-169 isoform P01116-2 G12S limits assumed): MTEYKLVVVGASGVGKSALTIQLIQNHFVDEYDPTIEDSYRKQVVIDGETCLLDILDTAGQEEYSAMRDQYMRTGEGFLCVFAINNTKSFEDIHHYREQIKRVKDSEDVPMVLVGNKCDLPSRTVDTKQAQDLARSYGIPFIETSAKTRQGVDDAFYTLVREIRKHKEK
KRAS G12S, sequence (P62937 whole entry): as the sequence (P62937 whole entry) above
Procedure, shortened: as §1

KRAS G12D = KRAS G12D (Homo sapiens, UniProt P01116+P62937, G12D); settings: with Cyclophilin A
KRAS G12D, sequence (P01116 1-169 isoform P01116-2 G12D limits assumed): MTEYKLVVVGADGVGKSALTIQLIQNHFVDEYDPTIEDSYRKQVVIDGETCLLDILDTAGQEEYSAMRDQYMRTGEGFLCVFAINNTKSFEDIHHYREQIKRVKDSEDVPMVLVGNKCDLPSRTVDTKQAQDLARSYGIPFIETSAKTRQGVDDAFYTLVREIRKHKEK
KRAS G12D, sequence (P62937 whole entry): as the sequence (P62937 whole entry) above
Procedure, shortened: as §1

KRAS G13C = KRAS G13C (Homo sapiens, UniProt P01116+P62937, G13C); settings: with Cyclophilin A
KRAS G13C, sequence (P01116 1-169 isoform P01116-2 G13C limits assumed): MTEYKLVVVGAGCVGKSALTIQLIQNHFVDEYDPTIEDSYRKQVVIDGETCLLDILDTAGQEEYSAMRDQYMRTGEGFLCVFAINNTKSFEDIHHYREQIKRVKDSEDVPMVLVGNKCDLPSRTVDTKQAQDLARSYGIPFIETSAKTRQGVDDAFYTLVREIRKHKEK
KRAS G13C, sequence (P62937 whole entry): as the sequence (P62937 whole entry) above
Procedure, shortened: as §1

[1] = KRAS G12C FRET data IC50, Ras-Raf disruption
[2] = KRAS WT FRET data IC50, Ras-Raf disruption
[3] = KRAS G12V FRET data IC50, Ras-Raf disruption
[4] = NRAS G12C FRET data IC50, NRAS G12C
[5] = KRAS G13D FRET data IC50, Ras-Raf disruption
[6] = KRAS G12S FRET data IC50, Ras-Raf disruption
[7] = KRAS G12D FRET data IC50, Ras-Raf disruption
[8] = KRAS G13C FRET data IC50, Ras-Raf disruption
[9] = Ras-Raf disruption, read-out: KRAS G12C FRET data IC50
[10] = KRAS Q61H, read-out: KRAS Q61H FRET data IC50
[11] = NRAS Q61K, read-out: NRAS Q61K FRET data IC50
[12] = Ras-Raf disruption, read-out: KRAS WT FRET data IC50
[13] = NRAS Q61R, read-out: NRAS Q61R FRET data IC50
[14] = NRAS WT, read-out: NRAS WT FRET data IC50
[15] = Ras-Raf disruption, read-out: KRAS G12V FRET data IC50
[16] = NRAS G12C, read-out: NRAS G12C FRET data IC50
[17] = Ras-Raf disruption, read-out: KRAS G13D FRET data IC50
[18] = Ras-Raf disruption, read-out: KRAS G12S FRET data IC50
[19] = Ras-Raf disruption, read-out: KRAS G12D FRET data IC50
[20] = Ras-Raf disruption, read-out: KRAS G13C FRET data IC50

KRAS G12C, sequence (P01116 1-169 isoform P01116-2 G12C limits assumed): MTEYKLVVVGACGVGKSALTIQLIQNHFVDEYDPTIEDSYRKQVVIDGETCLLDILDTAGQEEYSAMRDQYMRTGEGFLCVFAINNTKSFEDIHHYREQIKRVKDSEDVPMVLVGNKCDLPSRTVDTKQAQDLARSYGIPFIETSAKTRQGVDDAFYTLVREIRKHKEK
KRAS G12C, sequence (P62937 whole entry): as the sequence (P62937 whole entry) above

Structure (SMILES) | pIC50 (KRAS G12C; [1]) | pIC50 (KRAS Q61H) | pIC50 (NRAS Q61K) | pIC50 (KRAS WT; [2]) | pIC50 (NRAS Q61R) | pIC50 (NRAS WT) | pIC50 (KRAS G12V; [3]) | pIC50 (NRAS G12C; [4]) | pIC50 (KRAS G12C; [9]) | pIC50 (KRAS Q61H; [10]) | pIC50 (NRAS Q61K; [11]) | pIC50 (KRAS WT; [12]) | pIC50 (NRAS Q61R; [13]) | pIC50 (NRAS WT; [14]) | pIC50 (KRAS G12V; [15]) | pIC50 (NRAS G12C; [16]) | pIC50 (KRAS G13D; [17]) | pIC50 (KRAS G12S; [18]) | pIC50 (KRAS G12D; [19]) | pIC50 (KRAS G13C; [20]) | further results
CCn1c(-c2cccnc2[C@H](C)OC)c2c3cc(ccc31)-c1cc(O)cc(c1)C[C@H](NC(=O)[C@H](C1CCCC1)N(C)C(=O)[C@H](C)N(C)C(=O)[C@@H]1N[C@@H]1C1CC1)C(=O)N1CCC[C@H](N1)C(=O)OCC(C)(C)C2 [Example 328] | 7.00 to 8.00 | 7.00 to 8.00 | 6.00 to 7.00 | 7.00 to 8.00 | 6.00 to 7.00 | 7.00 to 8.00 | 7.00 to 8.00 | 7.00 to 8.00 |  |  |  |  |  |  |  |  |  |  |  |  | pIC50 (KRAS G13D; [5]): 6.00 to 7.00; pIC50 (KRAS G12S; [6]): 7.00 to 8.00; pIC50 (KRAS G12D; [7]): 6.00 to 7.00; pIC50 (KRAS G13C; [8]): 7.00 to 8.00
CCn1c(-c2cccnc2[C@H](C)OC)c2c3cc(ccc31)-c1cc(O)cc(c1)C[C@H](NC(=O)[C@H](C1CCCC1)N(C)C(=O)CN(C)C(=O)[C@@H]1N[C@@H]1C1(F)CC1)C(=O)N1CCC[C@H](N1)C(=O)OCC(C)(C)C2 [Example 314] | 7.00 to 8.00 | 7.00 to 8.00 | 6.00 to 7.00 | 7.00 to 8.00 | 6.00 to 7.00 | 7.00 to 8.00 | 7.00 to 8.00 | 7.00 to 8.00 |  |  |  |  |  |  |  |  |  |  |  |  | pIC50 (KRAS G13D; [5]): 7.00 to 8.00; pIC50 (KRAS G12S; [6]): 7.00 to 8.00; pIC50 (KRAS G12D; [7]): 6.00 to 7.00; pIC50 (KRAS G13C; [8]): 7.00 to 8.00
CCn1c(-c2cccnc2[C@H](C)OC)c2c3cc(ccc31)-c1csc(n1)C[C@H](NC(=O)[C@H](C(C)C)N(C)C(=O)N1CCN(C(=O)[C@H]3CN3)[C@@H](C)C1)C(=O)N1CCC[C@H](N1)C(=O)OCC(C)(C)C2 [Example 297] |  |  |  |  |  |  |  |  | 7.00 to 8.00 | 7.00 to 8.00 | 7.00 to 8.00 | 7.00 to 8.00 | 7.00 to 8.00 | 7.00 to 8.00 | 6.00 to 7.00 | 7.00 to 8.00 | 6.00 to 7.00 | 6.00 to 7.00 | 6.00 to 7.00 | 7.00 to 8.00 | 
CCn1c(-c2cccnc2[C@H](C)OC)c2c3cc(ccc31)-c1csc(n1)C[C@H](NC(=O)[C@H](C(C)C)N(C)C(=O)N(C)[C@H]1CCN(C(=O)[C@@H]3CN3)C1)C(=O)N1CCC[C@H](N1)C(=O)OCC(C)(C)C2 (atropisomer, axis not shown) [Example 310] |  |  |  |  |  |  |  |  | 6.00 to 7.00 | 6.00 to 7.00 | 6.00 to 7.00 | 6.00 to 7.00 | 6.00 to 7.00 | 6.00 to 7.00 | 6.00 to 7.00 | 6.00 to 7.00 | 5.00 to 6.00 | 6.00 to 7.00 | 5.00 to 6.00 | 6.00 to 7.00 | 
CCn1c(-c2cccnc2[C@H](C)OC)c2c3cc(ccc31)-c1csc(n1)C[C@H](NC(=O)[C@H](C1CCCC1)N(C)C(=O)CN(C)C(=O)[C@@H]1N[C@@H]1C1CC1)C(=O)N1CCC[C@H](N1)C(=O)OCC(C)(C)C2 [Example 210] | 6.00 to 7.00 | 6.00 to 7.00 | 5.00 to 6.00 | 5.00 to 6.00 | 5.00 to 6.00 | 5.00 to 6.00 | 5.00 to 6.00 | 6.00 to 7.00 |  |  |  |  |  |  |  |  |  |  |  |  | pIC50 (KRAS G13D; [5]): 5.00 to 6.00; pIC50 (KRAS G12S; [6]): 5.00 to 6.00; pIC50 (KRAS G12D; [7]): 5.00 to 6.00; pIC50 (KRAS G13C; [8]): 5.00 to 6.00
CCn1c(-c2cccnc2[C@H](C)OC)c2c3cc(ccc31)-c1cc(O)cc(c1)C[C@H](NC(=O)[C@H](C(C)C)N(C)C(=O)[C@H]1C[C@H]3CC[C@@H](C1)N3C(=O)[C@@H]1CN1)C(=O)N1CCC[C@H](N1)C(=O)OCC(C)(C)C2 (atropisomer, axis not shown) [Example 246] |  |  |  |  |  |  |  |  | 7.00 to 8.00 | > 8.00 | 7.00 to 8.00 | 7.00 to 8.00 | 6.00 to 7.00 | 7.00 to 8.00 | 6.00 to 7.00 | 7.00 to 8.00 | 6.00 to 7.00 | 6.00 to 7.00 | 5.00 to 6.00 | 7.00 to 8.00 | 
CCn1c(-c2cccnc2[C@H](C)OC)c2c3cc(ccc31)-c1cc(O)cc(c1)C[C@H](NC(=O)[C@H](C(C)C)N(C)C(=O)N1CC[C@@H](N(C)C(=O)[C@H]3CN3)C1)C(=O)N1CCC[C@H](N1)C(=O)OCC(C)(C)C2 (atropisomer, axis not shown) [Example 252] |  |  |  |  |  |  |  |  | > 8.00 | 7.00 to 8.00 | 6.00 to 7.00 | 7.00 to 8.00 | 6.00 to 7.00 | 7.00 to 8.00 | 6.00 to 7.00 | > 8.00 | 6.00 to 7.00 | 6.00 to 7.00 | 6.00 to 7.00 | 7.00 to 8.00 | 
CCn1c(-c2cccnc2[C@H](C)OC)c2c3cc(ccc31)-c1csc(n1)C[C@H](NC(=O)[C@H](C(C)C)N(C)C(=O)N1CC(N(C)C(=O)[C@@H]3CN3)C1)C(=O)N1CCC[C@H](N1)C(=O)OCC(C)(C)C2 (atropisomer, axis not shown) [Example 219] |  |  |  |  |  |  |  |  | 6.00 to 7.00 | 6.00 to 7.00 | 7.00 to 8.00 | 6.00 to 7.00 | 6.00 to 7.00 | 6.00 to 7.00 | 6.00 to 7.00 | 6.00 to 7.00 | 6.00 to 7.00 | 6.00 to 7.00 | 5.00 to 6.00 | 6.00 to 7.00 | 
CCn1c(-c2cccnc2[C@H](C)OC)c2c3cc(ccc31)-c1csc(n1)C[C@H](NC(=O)[C@H](C(C)C)N(C)C(=O)N(C)CCN(C)C(=O)[C@H]1CN1)C(=O)N1CCC[C@H](N1)C(=O)OCC(C)(C)C2 (atropisomer, axis not shown) [Example 216] |  |  |  |  |  |  |  |  | 7.00 to 8.00 | 7.00 to 8.00 | 7.00 to 8.00 | 6.00 to 7.00 | 6.00 to 7.00 | 6.00 to 7.00 | 6.00 to 7.00 | 7.00 to 8.00 | 6.00 to 7.00 | 6.00 to 7.00 | 6.00 to 7.00 | 6.00 to 7.00 | 
